One compound from paper PMC5013292, “A Putative Bacterial ABC Transporter Circumvents the Essentiality of Signal Peptidase” (mBio, 2016) can be followed below.

For assay [1], the system named is Δmcr cro/cI(Q16stop) (GNE0173). Description: MIC fold increase, GNE0173. In kind it is cell-based, S. aureus. The method, then:
(§1) MICs were determined according to the standard protocol from the Clinical and Laboratory Standards Institute ([23]). Briefly, S. aureus bacteria were harvested from regular MHA plates that had been cultured for ~20 h at 37°C. Serial dilutions of compound 103 were incubated with bacteria at approximately 10^6 CFU (CFU)/ml in MHB in round-bottom 96 well plates (Corning, Corning, NY) for 22 h at 37°C. MICs were determined by the lowest concentration of compound 103 showing absence of growth by visual inspection.
(§2) To generate mutations in SAUSA300_0351, _0352, and _0353 genes by homologous recombination, we transformed USA300 Δmcr using targeting constructs created in the vector pIMAY ([24]). To generate mutations in SAUSA300_0351, _0352, and _0353 genes in a cro/cI mutant background, we selected colonies from USA300 Δmcr cultured on plates containing fourfold the MIC of compound 103. Sequencing of PCR products of the cro/cI gene from resistant colonies yielded a clone with a Q16stop codon mutation in cro/cI (strain GNE0173). We further mutated SAUSA300_0351, _0352, and _0353 in this USA300 Δmcr cro/cI (Q16stop) clone to study the contributions of these three genes to cro/cI-mediated resistance.

In assay [2] the test system is 102 globally diverse clinical S. aureus isolates. Put plainly: MIC, global panel of 102 clinical isolates. It counts as cell-based. The following applies: among a panel of 102 clinical S. aureus isolates.
From the text: Wild-type clinical S. aureus strains were obtained from the Network on Antibiotic Resistance in Staphylococcus aureus (NARSA/BEI) program. MRSA strain USA300 refers throughout this paper to strain NRS384 from NARSA/BEI. A global panel of 102 clinical S. aureus isolates was selected from the collection of International Health Management Associates, Inc. (IHMA; Schaumburg, IL), based on diversity of geographic locations, antibiotic resistance profiles, and sites of infection. Bacteria were cultured on cation-adjusted Mueller-Hinton agar (MHA) plates or in cation-adjusted Mueller-Hinton broth (MHB). Bacterial strains used in this study are listed in Table S5 in the supplemental material.
as §1

Assay [3] addresses T1, full length recombinant SpsB (Staphylococcus aureus, UniProt P0A070).
T1 construct: 500 pM full length recombinant SpsB from S. aureus
Description: Enzymatic activity of recombinant SpsB. It counts as biochemical, S. aureus. The following applies: result in words; Fig. S1C. On the procedure: White 384-well low-volume polypropylene assay plates (Thermo Scientific, Waltham, MA) were pre-spotted with 25 nL per well of compound 103, serially diluted in DMSO, using an Echo instrument (Labcyte, Sunnyvale, CA). A 10 µL reaction in PBS (pH 7.4) containing 0.1% Triton X-100 was then initiated by adding 500 pM full length recombinant SpsB from S. aureus plus 10 µM fluorogenic peptide substrate Dabcyl-βAla-KPAKAAE-Edans (GL Biochem, Boston, MA). Substrate cleavage separates the Dabcyl quencher from the Edans fluorophore, resulting in 490nm fluorescence (340nm excitation). The reaction was read kinetically using an M-1000 plate reader (Tecan, Morrisville, NC), plotting the initial slope (rate) of fluorescence generation versus inhibitor concentration to derive IC50 values.

The test system of assay [4] is cro/cI(−62G→A)(pcro/cI-cro/cI) (GNE0100). Put plainly: MIC fold increase, GNE0100. In kind it is cell-based, S. aureus. On the procedure: as §1
In assay [5] the test system is SpsB Y30S mutant of USA300 Δmcr cro/cI(Q16stop) SAUSA300_0352(K44A). Description: MIC fold increase, SpsB Y30S mutant. It counts as cell-based, S. aureus. The method, then:
as §1

In assay [6] the test system is Δmcr cro/cI(Q16stop) ΔSAUSA300_0353 (GNE0210). Put plainly: MIC fold increase, GNE0210. In kind it is cell-based, S. aureus. The method, then: as §1, §2
Assay [7] relates to SpsB V167D mutant of USA300 Δmcr cro/cI(Q16stop) SAUSA300_0352(K44A). Description: MIC fold increase, SpsB V167D mutant. In kind it is cell-based, S. aureus. On the procedure: as §1
In assay [8] the test system is Δmcr cro/cI(Q16stop) ΔSAUSA300_0351 (GNE0209). Put plainly: MIC fold increase, GNE0209. In kind it is cell-based, S. aureus. The method, then: as §1, §2
In assay [9] the test system is SpsB H68Y mutant of USA300 Δmcr cro/cI(Q16stop) SAUSA300_0352(K44A). Description: MIC fold increase, SpsB H68Y mutant. It counts as cell-based, S. aureus. The method, then: as §1
In assay [10] the test system is cro/cI(−62G→A)(pMK4) (GNE0099). Put plainly: MIC fold increase, GNE0099. It counts as cell-based, S. aureus. On the procedure: as §1
Assay [11] concerns cro/cI(M1V)(pcro/cI-cro/cI) (GNE0109). Put plainly: MIC fold increase, GNE0109. In kind it is cell-based, S. aureus. The method, then: as §1
Assay [12] relates to S. aureus USA300 SpsB-low. Put plainly: MIC, USA300 SpsB-low. It counts as cell-based. The following applies: result in words. The method, then:
as §1
A strain of USA300 Δmcr overexpressing SpsB (USA300 SpsB-high; GNE0028) was engineered by cloning SpsB under the constitutive sarA promoter into vector pMK4, resulting in SpsB expression that was ~20-fold higher than the wild-type level as determined by Western blotting. A USA300 Δmcr strain that underexpresses SpsB (USA300 SpsB-low; […]) was generated by genomic incorporation of spsB under the isopropyl-β-D-thiogalactopyranoside (IPTG)-sensitive promoter spac; without IPTG, this strain expresses SpsB at ~5% of the wild-type level as determined by Western blotting.

Assay [13] relates to Δmcr cro/cI(Q16stop) SAUSA300_0352(K44A) (GNE0175). Put plainly: MIC fold increase, GNE0175. In kind it is cell-based, S. aureus. On the procedure: as §1, §2
Assay [14] deals with cro/cI(−14G→T)(pcro/cI-cro/cI) (GNE0097). Put plainly: MIC fold increase, GNE0097. It counts as cell-based, S. aureus. On the procedure:
as §1

In assay [15] the test system is SpsB Y30C mutant of USA300 Δmcr cro/cI(Q16stop) SAUSA300_0352(K44A). Put plainly: MIC fold increase, SpsB Y30C mutant. In kind it is cell-based, S. aureus. The method, then:
as §1

For assay [16], the system named is SpsB V167F mutant of USA300 Δmcr cro/cI(Q16stop) SAUSA300_0352(K44A). Put plainly: MIC fold increase, SpsB V167F mutant. In kind it is cell-based, S. aureus. The method, then:
as §1

Assay [17] relates to cro/cI(−14G→T)(pMK4) (GNE0096). Put plainly: MIC fold increase, GNE0096. In kind it is cell-based, S. aureus. On the procedure:
as §1

T1 sequence (P0A070 whole entry): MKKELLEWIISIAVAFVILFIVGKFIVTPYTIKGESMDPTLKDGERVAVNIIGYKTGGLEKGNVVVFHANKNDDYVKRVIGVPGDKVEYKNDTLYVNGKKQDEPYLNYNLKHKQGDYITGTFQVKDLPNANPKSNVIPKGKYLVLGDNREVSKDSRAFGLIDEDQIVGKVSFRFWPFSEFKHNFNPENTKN

Take `CCCCc1ccc(-c2ccc(C(=O)N[C@@H](CCCCN)C(=O)N(C)[C@@H]3C(=O)N[C@@H](C)C(=O)N[C@H](C(=O)NCC(C)C(=O)O)Cc4ccc(O)c(c4)-c4cc3ccc4O)cc2)cc1` (some centres unmarked) [Compound 103]: the “MIC of compound 103 (fold increase versus MIC for USA300 WT)” value is more than 32 fold in [1]; more than 32 fold in assay [4] (GNE0100); 4 fold in assay [5]; 1.0 fold in [6] (GNE0210); 8 fold in assay [7]; more than 32 fold in [8] (GNE0209). Besides, the “MIC of compound 103 (fold increase versus MIC for USA300 WT)” value in [9] is 8 fold; in assay [10], more than 32 fold; in [11] (GNE0109), 1.7 fold; in assay [13] (GNE0175) it was 1.0 fold; in [14] (GNE0097), 3.0 fold; in [15] it was 4 fold. Further, the “MIC of compound 103 (fold increase versus MIC for USA300 WT)” value was 8 fold in assay [16] and more than 32 fold in assay [17]. For the same compound, the “isolates resistant to compound 103” value in assay [2] came to 7 isolates. Also, the “inhibition of enzymatic activity of recombinant SpsB” value in assay [3] is recorded as “dose dependently inhibited”. For the same compound, the resistance phenotype entry in [4] (GNE0100, plasmid-encoded WT cro/cI, result in words) was “could not complement the phenotype”; in assay [6] (GNE0210, deletion of SAUSA300_0353, result in words), “reversed the resistant phenotype”; in assay [8] (GNE0209, deletion of SAUSA300_0351, result in words) it was “had no effect on the resistance phenotype”; in assay [11] (GNE0109, plasmid-encoded WT cro/cI, result in words), “reversed the resistant phenotype”; in [13] (GNE0175, SAUSA300_0352(K44A), result in words) it was “reversed the resistant phenotype”; in assay [14] (GNE0097, plasmid-encoded WT cro/cI, result in words), “reversed the resistant phenotype”. The “MIC for a strain that underexpresses SpsB” value in [12] is “reduced MIC”.
